Measurements: patent US20240124417A1, “COMPOUNDS USEFUL AS IMMUNOMODULATORS” (Bristol-Myers Squibb Company, priority 2019, published 2024)

The compounds below were run against T1, PD-1/PD-L1 (Homo sapiens, UniProt Q9NZQ7) (assay: PD-1/PD-L1 Homogenous Time-Resolved Fluorescence (HTRF) binding assay). Settings: PD-L1-His 10 nM, PD-1-Ig 20 nM.
T1 construct: TVMV protease site linker (C); made in house; host or cells: HEK293T cells
Description: The ability of the compounds of the invention to bind to PD-L1 was investigated using a PD-1/PD-L1 Homogenous Time-Resolved Fluorescence (HTRF) binding assay.
Homogenous Time-Resolved Fluorescence (HTRF) binding assay.
The interaction of PD-1 and PD-L1 can be assessed using soluble, purified preparations of the extracellular domains of the two proteins. The PD-1 and PD-L1 protein extracellular domains were expressed as fusion proteins with detection tags, for PD-1, the tag was the Fc portion of Immunoglobulin (PD-1-Ig) and for PD-L1 it was the 6 histidine motif (PD-L1-His). All binding studies were performed in an HTRF assay buffer consisting of dPBS supplemented with 0.1% […] bovine serum albumin and 0.05% (v/v) Tween-20. For the h/PD-L1-His binding assay, inhibitors were pre-incubated with PD-L1-His (10 nM final) for 15 m in 4 μl of assay buffer, followed by addition of PD-1-Ig (20 nM final) in 1 μl of assay buffer and further incubation for 15 m. HTRF detection was achieved using europium crypate-labeled anti-Ig (1 nM final) and allophycocyanin (APC) labeled anti-His (20 nM final). Antibodies were diluted in HTRF detection buffer and 5 μl was dispensed on top of the binding reaction. […] Additional binding assays were established between the human proteins PD-1-Ig/PD-L2-His (20 & 5 nM, respectively) and CD80-His/PD-L1-Ig (100 & 10 nM, respectively). […]

T1 sequence (Q9NZQ7 18-239): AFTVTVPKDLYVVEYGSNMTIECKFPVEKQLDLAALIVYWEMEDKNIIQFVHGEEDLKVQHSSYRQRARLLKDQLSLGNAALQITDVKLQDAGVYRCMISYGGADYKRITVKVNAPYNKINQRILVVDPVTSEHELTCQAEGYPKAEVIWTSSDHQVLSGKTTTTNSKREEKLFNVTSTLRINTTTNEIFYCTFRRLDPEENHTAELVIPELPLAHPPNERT

SMILES	IC50
Cc1c(COc2cc(OCc3cncc(C#N)c3)c(CNCc3nn(C)c4ccccc34)cc2Cl)cccc1-c1cccc(OCCCN2CC[C@@H](O)C2)c1C [Example 2555, (R)-5-((4-chloro-5-((3′-(3-(3-hydroxypyrrolidin-1-yl)propoxy)-2,2′-dimethyl-[1,1′-biphenyl]-3-yl)methoxy)-2-((((1-methyl-1H-indazol-3-yl)methyl)amino)methyl)phenoxy)methyl)nicotinonitrile]	0.4 nM
Cc1c(COc2cc(OCc3cncc(C#N)c3)c(CNCCc3nc4ccccc4[nH]3)cc2Cl)cccc1-c1cccc(OCCCN2CC[C@@H](O)C2)c1C [Example 2505, (R)-5-((2-(((2-(1H-benzo[d]imidazol-2-yl)ethyl)amino)methyl)-4-chloro-5-((3′-(3-(3 hydroxypyrrolidin-1-yl)propoxy)-2,2′-dimethyl-[1,1′-biphenyl]-3yl)methoxy)phenoxy)methyl)nicotinonitrile]	6.7 nM
Cc1c(COc2cc(OCc3cncc(C#N)c3)c(CNCCc3nc4cc(Cl)ccc4[nH]3)cc2Cl)cccc1-c1cccc(OCCCN2CC[C@@H](O)C2)c1C [Example 2516, (R)-5-((4-chloro-2-(((2-(5-chloro-1H-benzo[d]imidazol-2-yl)ethyl)amino)methyl)-5-((3′-(3-(3-hydroxypyrrolidin-1-yl)propoxy)-2,2′-dimethyl-[1,1′-biphenyl]-3-yl)methoxy)phenoxy)methyl)nicotinonitrile]	4.5 nM
Cc1c(COc2cc(OCc3cncc(C#N)c3)c(CNCc3cnccn3)cc2Cl)cccc1-c1cccc(OCCCN2CC[C@@H](O)C2)c1C [Example 2020, (R)-5-((4-chloro-5-((3′-(3-(3-hydroxypyrrolidin-1-yl)propoxy)-2,2′-dimethyl-[1,1′-biphenyl]-3-yl)methoxy)-2-(((pyrazin-2-ylmethyl)amino)methyl)phenoxy)methyl)nicotinonitrile]	2.7 nM
Cc1c(COc2cc(OCc3cncc(C#N)c3)c(CNCc3ncccn3)cc2Cl)cccc1-c1cccc(OCc2cncnc2)c1Cl [Example 2063, 5-((4-chloro-5-((2′-chloro-2-methyl-3′-(pyrimidin-5-ylmethoxy)-[1,1′-biphenyl]-3-yl)methoxy)-2-(((pyrimidin-2-ylmethyl)amino)methyl)phenoxy)methyl)nicotinonitrile]	28.5 nM
Cc1nc(CN(C)Cc2cc(Cl)c(OCc3cccc(-c4cccc(OCCCN5CC[C@@H](O)C5)c4C)c3C)cc2OCc2cncc(C#N)c2)no1 [Example 2545, (R)-5-((4-chloro-5-((3′-(3-(3-hydroxypyrrolidin-1-yl)propoxy)-2,2′-dimethyl-[1,1′-biphenyl]-3-yl)methoxy)-2-((methyl((5-methyl-1,2,4-oxadiazol-3-yl)methyl)amino)methyl)phenoxy)methyl)nicotinonitrile]	11.9 nM
Cc1c(COc2cc(OCc3cncc(C#N)c3)c(CNCCc3c[nH]cn3)cc2Cl)cccc1-c1cccc(OCC2CCCN(C)C2)c1Cl (stereo not shown) [Example 2580, 5-((2-(((2-(1H-imidazol-4-yl)ethyl)amino)methyl)-4-chloro-5-((2′-chloro-2-methyl-3′-((1-methylpiperidin-3-yl)methoxy)-[1,1′-biphenyl]-3-yl)methoxy)phenoxy)methyl)nicotinonitrile]	0.2 nM
Cc1c(COc2cc(OCc3cncc(C#N)c3)c(CNCc3cncnc3)cc2Cl)cccc1-c1cccc(OCC2CCCN(C)C2)c1Cl (stereo not shown) [Example 2584, 5-((4-chloro-5-((2′-chloro-2-methyl-3′-((1-methylpiperidin-3-yl)methoxy)-[1,1′-biphenyl]-3-yl)methoxy)-2-(((pyrimidin-5-ylmethyl)amino)methyl)phenoxy)methyl)nicotinonitrile]	2.6 nM
Cc1c(COc2cc(OCc3cncc(C#N)c3)c(CN3CCC(c4nnn[nH]4)C3)cc2Cl)cccc1-c1cccc(OCCCN2CC[C@@H](O)C2)c1C (stereo partly drawn) [Example 1017, 5-((2-((3-(1H-Tetrazol-5-yl)pyrrolidin-1-yl)methyl)-4-chloro-5-((3′-(3-((R)-3-hydroxy-pyrrolidin-1-yl)propoxy)-2,2′-dimethyl-[1,1′-biphenyl]-3-yl)methoxy)phenoxy)methyl)-nicotinonitrile]	1.9 nM
Cc1c(COc2cc(OCc3cncc(C#N)c3)c(CN3CCc4[nH]cnc4C3)cc2Cl)cccc1-c1cccc(OCCCN2CC[C@@H](O)C2)c1C [Example 2515, (R)-5-((4-chloro-5-((3′-(3-(3-hydroxypyrrolidin-1-yl)propoxy)-2,2′-dimethyl-[1,1′-biphenyl]-3-yl)methoxy)-2-((1,4,6,7-tetrahydro-5H-imidazo[4,5-c]pyridin-5-yl)methyl)phenoxy)methyl)nicotinonitrile]	3.8 nM
Cc1c(COc2cc(OCc3cncc(C#N)c3)c(CN(C)Cc3ccnc(C#N)n3)cc2Cl)cccc1-c1cccc(OCCCN2CC[C@@H](O)C2)c1C [Example 2045, (R)-4-(((5-chloro-2-((5-cyanopyridin-3-yl)methoxy)-4-((3′-(3-(3-hydroxypyrrolidin-1-yl)propoxy)-2,2′-dimethyl-[1,1′-biphenyl]-3-yl)methoxy)benzyl) (methyl)amino)methyl)pyrimidine-2-carbonitrile]	16.4 nM
Cc1c(COc2cc(OCc3cncc(C#N)c3)c(CN(C)CCc3cc[nH]n3)cc2Cl)cccc1-c1cccc(OCCCN2CC[C@@H](O)C2)c1C [Example 2518, (R)-5-((2-(((2-(1H-pyrazol-3-yl)ethyl)(methyl)amino)methyl)-4-chloro-5-((3′-(3-(3-hydroxypyrrolidin-1-yl)propoxy)-2,2′-dimethyl-[1,1′-biphenyl]-3-yl)methoxy)phenoxy)methyl)nicotinonitrile]	4.4 nM
Cc1noc(C)c1CN(C)Cc1cc(Cl)c(OCc2cccc(-c3cccc(OCCCN4CC[C@@H](O)C4)c3C)c2C)cc1OCc1cncc(C#N)c1 [Example 2527, (R)-5-((4-chloro-2-((((3,5-dimethylisoxazol-4-yl)methyl)(methyl)amino)methyl)-5-((3′-(3-(3-hydroxypyrrolidin-1-yl)propoxy)-2,2′-dimethyl-[1,1′-biphenyl]-3-yl)methoxy)phenoxy)methyl)nicotinonitrile]	5.4 nM
CC(=O)NC1CCN(CCCOc2cccc(-c3cccc(COc4cc(OCc5cncc(C#N)c5)c(CN5CCCCC5c5cn[nH]c5)cc4Cl)c3C)c2Cl)CC1 (stereo not shown) [Example 1059, N-(1-(3-((3′-((4-((2-(1H-Pyrazol-4-yl)piperidin-1-yl)methyl)-2-chloro-5-((5-cyano-pyridin-3-yl)methoxy)phenoxy)methyl)-2-chloro-2′-methyl-[1,1′-biphenyl]-3-yl)oxy)-propyl)piperidin-4-yl)acetamide]	3.6 nM
Cc1c(COc2cc(OCc3cncc(C#N)c3)c(CNCc3ncc[nH]3)cc2Cl)cccc1-c1cccc(OCCCN2CC[C@@H](O)C2)c1C [Example 2004, (R)-5-((2-((((1H-imidazol-2-yl)methyl)amino)methyl)-4-chloro-5-((3′-(3-(3-hydroxypyrrolidin-1-yl)propoxy)-2,2′-dimethyl-[1,1′-biphenyl]-3-yl)methoxy)phenoxy)methyl)nicotinonitrile]	4.1 nM
CC(=O)NC1CCN(CCCOc2cccc(-c3cccc(COc4cc(OCc5cncc(C#N)c5)c(CNCc5nnn[nH]5)cc4Cl)c3C)c2C)CC1 [Example 1046, N-(1-(3-((3′-((4-((((1H-Tetrazol-5-yl)methyl)amino)methyl)-2-chloro-5-((5-cyanopyridin-3-yl)methoxy)phenoxy)methyl)-2,2′-dimethyl-[1,1′-biphenyl]-3-yl)oxy)propyl)piperidin-4-yl)acetamide]	1.9 nM
Cc1c(COc2cc(OCc3cncc(C#N)c3)c(CN(C)C(C)c3nnn[nH]3)cc2Cl)cccc1-c1cccc(OCCCNC[C@H](O)CO)c1C (stereo partly drawn) [Example 1030, 5-((2-(((1-(1H-Tetrazol-5-yl)ethyl)(methyl)amino)methyl)-4-chloro-5-((3′-(3-(((S)-2,3-dihydroxypropyl)amino)propoxy)-2,2′-dimethyl-[1,1′-biphenyl]-3-yl)methoxy)-phenoxy)methyl)nicotinonitrile]	0.2 nM
Cc1c(COc2cc(OCc3cncc(C#N)c3)c(CN3CCc4[nH]ncc4C3)cc2Cl)cccc1-c1cccc(OCCCN2CC[C@@H](O)C2)c1C [Example 2512, (R)-5-((4-chloro-5-((3′-(3-(3-hydroxypyrrolidin-1-yl)propoxy)-2,2′-dimethyl-[1,1′-biphenyl]-3-yl)methoxy)-2-((1,4,6,7-tetrahydro-5H-pyrazolo[4,3-c]pyridin-5-yl)methyl)phenoxy)methyl)nicotinonitrile]	3.9 nM
Cc1c(COc2cc(OCc3cncc(C#N)c3)c(CNCc3cn[nH]c3)cc2Cl)cccc1-c1cccc(OCCCN2CC[C@@H](O)C2)c1C [Example 2524, (R)-5-((2-((((1H-pyrazol-4-yl)methyl)amino)methyl)-4-chloro-5-((3′-(3-(3-hydroxypyrrolidin-1-yl)propoxy)-2,2′-dimethyl-[1,1′-biphenyl]-3-yl)methoxy)phenoxy)methyl)nicotinonitrile]	5.5 nM
